The source made the active and inactive calls.
What was measured:
[1] = ADAM10 inhibitors, peptide cleavage, dose response, biochemical, QFRET (AID 743254);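 also: ADAM10 enzyme with the DM2 quenched FRET peptide as substrate; EDANS fluorescence gain as the protease cuts the substrate; inhibitor potency against ADAM10 proteolytic activity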
[2] = Luminescence Cell-Based Dose Retest to Confirm Inhibitors of Cancer Stem Cells. [Related pubchem assays (depositor defined):AID2717, AID2721]; type: functional; settings: Homo sapiens
[3] = HEp-2 cell cytotoxicity, dose response, cytotoxicity control for RSV inhibitor project, HTS (AID 2410); type: functional; settings: human respiratory syncytial virus
[4] = biological target: Disintegrin and metalloproteinase domain-containing protein 17 (Homo sapiens, UniProt P78536); test: ADAM17 protease inhibitors, dose response, counter-screen for ADAM10 exosite inhibitor project, biochemical, quenched FRET substrate (AID 743253)
Sequence of Disintegrin and metalloproteinase domain-containing protein 17 (P78536 whole entry, the tested form may be a part): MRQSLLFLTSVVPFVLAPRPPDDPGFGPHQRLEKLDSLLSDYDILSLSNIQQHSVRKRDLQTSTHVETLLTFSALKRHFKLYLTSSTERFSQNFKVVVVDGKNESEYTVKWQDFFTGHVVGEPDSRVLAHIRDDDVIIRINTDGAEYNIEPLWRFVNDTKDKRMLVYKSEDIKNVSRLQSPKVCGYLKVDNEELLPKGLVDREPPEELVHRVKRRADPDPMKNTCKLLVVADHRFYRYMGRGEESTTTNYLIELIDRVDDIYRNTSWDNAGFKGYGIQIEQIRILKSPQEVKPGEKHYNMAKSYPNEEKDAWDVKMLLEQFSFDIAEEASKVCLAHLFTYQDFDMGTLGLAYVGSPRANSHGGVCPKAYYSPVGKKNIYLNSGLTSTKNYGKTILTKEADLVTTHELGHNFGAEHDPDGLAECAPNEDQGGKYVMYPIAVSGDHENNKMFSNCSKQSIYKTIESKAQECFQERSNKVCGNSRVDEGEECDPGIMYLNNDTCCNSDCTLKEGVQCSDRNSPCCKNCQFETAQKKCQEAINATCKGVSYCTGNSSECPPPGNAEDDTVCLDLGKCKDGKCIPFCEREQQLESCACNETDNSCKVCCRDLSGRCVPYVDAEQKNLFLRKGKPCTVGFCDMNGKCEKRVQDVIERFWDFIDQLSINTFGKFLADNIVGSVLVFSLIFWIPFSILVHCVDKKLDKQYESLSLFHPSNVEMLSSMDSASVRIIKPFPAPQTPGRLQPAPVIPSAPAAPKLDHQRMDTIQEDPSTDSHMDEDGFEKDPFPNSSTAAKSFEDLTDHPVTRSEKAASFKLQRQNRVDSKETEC

[5] = cytotoxicity toward NIH3T3 fibroblasts, dose response, counter-screen, cell-based, ATP luminescence, mouse fibroblasts (AID 2010); type: functional;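 also: cells exposed to compound for about 90 hours before reading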
[6] = inhibitors of intracellular T. cruzi replication, confirmation, NIH3T3 host cells, beta-gal luminescence (AID 2044); type: functional, cell-based;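 also: intracellular parasites grown in NIH/3T3 mouse fibroblasts as host cells; luminescent beta-galactosidase reporter signal from transgenic T. cruzi replicating inside host cells; inhibitors lower the luminescence signal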
HEK293 [7] = test: cells; type: functional, cell-based; settings: Homo sapiens
HEK293 [8] = test: NOD2 signaling inhibitors in MDP-stimulated cells, cell-based, uHTS, luminescence (AID 2001); type: functional; settings: Homo sapiens
[9] = biological target: Nucleotide-binding oligomerization domain-containing protein 2 (Homo sapiens, UniProt Q9HC29); test: NOD2 signaling inhibitors, cell-based, luminescence, uHTS, HEK293 (AID 1566); type: functional
HEK293 [10] = test: cells; type: functional, cell-based; settings: Homo sapiens; remark: listed apart in the source
HEK293 [11] = test: cells; type: functional, cell-based; settings: Homo sapiens; remark: listed apart in the source
[12] = LGR2 antagonists, dose response, cell-based, HEK293, CRE-luciferase reporter, cherry pick, set 2 (AID 743343); type: functional;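 also: transfected cells were stimulated with diluted bursicon conditioned medium after compound addition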
[13] = MC4R antagonists, dose response, counter-screen for LGR2 antagonist project, cell-based, plate reader, cherry pick (AID 743444); type: functional;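 also: transfected HEK 293 cells stimulated with alpha-MSH peptide; potency of inhibitors of the alpha-MSH evoked signal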
HEK293 [14] = test: NOD1 signaling inhibitors, primary screen, cell-based, luminescence, uHTS (AID 1578); type: functional; settings: Homo sapiens
[15] = A549 cell cytotoxicity, dose response, cytotoxicity control, plate reader, cherry-pick, antagonist series (AID 743412); type: functional, cell-based
Cytochrome P450 1A2 = biological target: T1, Cytochrome P450 1A2 (Homo sapiens, UniProt P05177);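 also: PubChem cytochrome P450 panel assay, CYP1A2 panel member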
T1 sequence (P05177 whole entry): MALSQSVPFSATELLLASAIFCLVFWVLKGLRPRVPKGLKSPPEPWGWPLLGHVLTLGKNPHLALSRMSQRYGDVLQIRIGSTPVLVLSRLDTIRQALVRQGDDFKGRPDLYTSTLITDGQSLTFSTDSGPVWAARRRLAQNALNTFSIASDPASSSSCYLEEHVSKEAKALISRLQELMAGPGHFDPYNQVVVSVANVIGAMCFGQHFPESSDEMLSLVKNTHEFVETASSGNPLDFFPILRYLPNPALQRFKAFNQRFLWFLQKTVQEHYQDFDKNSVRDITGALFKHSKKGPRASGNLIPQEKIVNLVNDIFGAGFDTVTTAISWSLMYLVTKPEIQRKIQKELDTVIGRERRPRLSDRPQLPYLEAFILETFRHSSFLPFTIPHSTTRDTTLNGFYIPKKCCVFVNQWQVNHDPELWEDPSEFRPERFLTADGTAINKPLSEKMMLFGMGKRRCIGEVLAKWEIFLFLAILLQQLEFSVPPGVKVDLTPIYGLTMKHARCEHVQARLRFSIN

Estrogen receptor beta = Estrogen receptor beta (Homo sapiens, UniProt Q92731); test: ERβ–SRC-3 coactivator interaction inhibitors, confirmation, orthogonal assay, biochemical, ELISA, streptavidin-HRP readout (AID 1060)
Cytochrome P450 2C9 = Cytochrome P450 2C9 (Homo sapiens, UniProt P11712)
[16] = biological target: E3 ubiquitin-protein ligase Mdm2 (Homo sapiens, UniProt Q00987); test: enhancers of MDM2-luciferase reporter signal, concentration-effect titration, project on inhibitors of MDM2 ubiquitin ligase, cellular assay, luminescent readout, 384-well plate format (AID 1394); type: functional;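 also: MDM2 E3 inhibitors raise luminescence so EC50 is for signal enhancement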
[17] = biological target: T2, Lytic switch protein BZLF1 (Epstein-Barr virus (strain B95-8) (HHV-4) (Human herpesvirus 4), UniProt P03206); test: EBV ZTA inhibitors, dose response, counter-screen for EBNA-1 inhibitor project, biochemical, fluorescence polarization, Epstein-Barr virus, 1536-well (AID 2377); parameters: species or system human gammaherpesvirus 4;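 also: fluorescence polarization of Cy5-labelled ZRE DNA probe bound by purified Zta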
T2 sequence (P03206 whole entry): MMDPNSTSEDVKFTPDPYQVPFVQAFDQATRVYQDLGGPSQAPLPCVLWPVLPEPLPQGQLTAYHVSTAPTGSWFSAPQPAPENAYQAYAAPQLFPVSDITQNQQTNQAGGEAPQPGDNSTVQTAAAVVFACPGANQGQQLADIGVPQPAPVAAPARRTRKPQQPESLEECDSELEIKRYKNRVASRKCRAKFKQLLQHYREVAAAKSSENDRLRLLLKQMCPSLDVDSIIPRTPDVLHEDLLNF

[18] = biological target: T3, Epstein-Barr nuclear antigen 1 (Epstein-Barr virus (strain B95-8) (HHV-4) (Human herpesvirus 4), UniProt P03211); test: EBNA-1 inhibitors, dose response, biochemical, fluorescence polarization, 1536-well (AID 2381); parameters: species or system human gammaherpesvirus 4;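 also: fluorescence polarization of a Cy5 DNA probe bound by EBNA-1 protein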
T3 sequence (P03211 whole entry): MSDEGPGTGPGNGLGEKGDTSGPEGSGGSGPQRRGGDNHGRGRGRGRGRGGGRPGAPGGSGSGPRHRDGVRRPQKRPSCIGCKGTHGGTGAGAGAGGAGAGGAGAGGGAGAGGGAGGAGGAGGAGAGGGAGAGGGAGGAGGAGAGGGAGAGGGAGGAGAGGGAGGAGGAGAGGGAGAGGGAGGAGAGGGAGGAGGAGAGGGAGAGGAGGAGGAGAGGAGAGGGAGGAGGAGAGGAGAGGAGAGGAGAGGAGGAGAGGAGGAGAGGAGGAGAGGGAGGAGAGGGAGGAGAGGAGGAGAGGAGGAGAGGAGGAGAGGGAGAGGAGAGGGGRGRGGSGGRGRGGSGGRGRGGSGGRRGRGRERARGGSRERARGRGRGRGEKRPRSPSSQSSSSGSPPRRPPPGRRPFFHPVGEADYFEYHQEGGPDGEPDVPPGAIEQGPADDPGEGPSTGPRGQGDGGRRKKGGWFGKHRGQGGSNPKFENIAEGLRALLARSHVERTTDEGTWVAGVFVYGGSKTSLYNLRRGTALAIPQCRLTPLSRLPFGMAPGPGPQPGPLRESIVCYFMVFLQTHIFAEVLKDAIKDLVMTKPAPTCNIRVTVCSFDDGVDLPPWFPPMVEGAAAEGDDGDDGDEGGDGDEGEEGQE

[19] = biological target: T4, Oxysterols receptor LXR-beta (Homo sapiens, UniProt P55055); test: LXR agonists, Gal4 luciferase reporter, dose response, counter-screen for ssDAF-12 agonist project, cell-based, luminescence, HEK293, S. stercoralis campaign (AID 720737); type: functional; settings: read-out: IC50 (the source's name)
T4 sequence (P55055 whole entry): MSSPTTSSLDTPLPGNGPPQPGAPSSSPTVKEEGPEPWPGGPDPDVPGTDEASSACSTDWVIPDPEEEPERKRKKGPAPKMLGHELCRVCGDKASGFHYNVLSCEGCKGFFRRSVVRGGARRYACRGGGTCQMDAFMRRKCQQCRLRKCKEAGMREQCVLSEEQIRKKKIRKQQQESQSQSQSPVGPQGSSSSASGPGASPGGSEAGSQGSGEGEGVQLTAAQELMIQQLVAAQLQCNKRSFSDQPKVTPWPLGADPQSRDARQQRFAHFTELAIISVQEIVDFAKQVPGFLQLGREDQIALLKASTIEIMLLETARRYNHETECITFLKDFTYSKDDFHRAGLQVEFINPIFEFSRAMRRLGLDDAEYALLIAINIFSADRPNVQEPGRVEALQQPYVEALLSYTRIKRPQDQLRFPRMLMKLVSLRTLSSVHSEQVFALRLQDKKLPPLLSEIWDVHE

[20] = Luminescence-based cell-based high throughput dose response assay to identify activators of the DAF-12 from the parasite S. stercoralis (ssDAF-12).; type: functional
[21] = cytotoxicity in HPDE-C7 cells, cell-based, fluorescence, HTS (AID 430); type: functional; settings: Homo sapiens
[22] = cytotoxicity in KRAS-transformed pancreatic duct cells, primary screen, cell-based, fluorescence, HTS (AID 431); type: functional; settings: Homo sapiens;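 also: cell line used: HPDE-C7K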
[23] = biological target: Peroxisome proliferator-activated receptor gamma/Nuclear receptor coactivator 2 (Homo sapiens, UniProt P37231); type: functional;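 also: agonist potency for raising coactivator recruitment to the receptor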
[24] = biological target: Peroxisome proliferator-activated receptor gamma/Nuclear receptor coactivator 3 (Homo sapiens, UniProt P37231); type: functional;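 also: agonist potency for raising coactivator recruitment to the receptor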
Sequence of Peroxisome proliferator-activated receptor gamma/Nuclear receptor coactivator 3 (P37231 whole entry): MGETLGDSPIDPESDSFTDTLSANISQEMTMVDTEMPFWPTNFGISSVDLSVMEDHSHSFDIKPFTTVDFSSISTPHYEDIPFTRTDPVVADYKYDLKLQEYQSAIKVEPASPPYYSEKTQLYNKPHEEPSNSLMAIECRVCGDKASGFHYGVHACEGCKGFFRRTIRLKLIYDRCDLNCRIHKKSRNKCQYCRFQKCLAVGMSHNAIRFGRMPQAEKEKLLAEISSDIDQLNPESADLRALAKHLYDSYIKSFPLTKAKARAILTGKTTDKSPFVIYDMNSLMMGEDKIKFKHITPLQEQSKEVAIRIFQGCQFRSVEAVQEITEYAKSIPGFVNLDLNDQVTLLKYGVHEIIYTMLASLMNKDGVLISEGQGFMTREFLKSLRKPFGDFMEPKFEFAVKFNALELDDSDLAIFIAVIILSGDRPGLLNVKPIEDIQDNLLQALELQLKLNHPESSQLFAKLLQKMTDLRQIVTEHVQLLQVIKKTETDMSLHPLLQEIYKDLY
Sequence of Peroxisome proliferator-activated receptor gamma/Nuclear receptor coactivator 3 (Q9Y6Q9 whole entry, further chain): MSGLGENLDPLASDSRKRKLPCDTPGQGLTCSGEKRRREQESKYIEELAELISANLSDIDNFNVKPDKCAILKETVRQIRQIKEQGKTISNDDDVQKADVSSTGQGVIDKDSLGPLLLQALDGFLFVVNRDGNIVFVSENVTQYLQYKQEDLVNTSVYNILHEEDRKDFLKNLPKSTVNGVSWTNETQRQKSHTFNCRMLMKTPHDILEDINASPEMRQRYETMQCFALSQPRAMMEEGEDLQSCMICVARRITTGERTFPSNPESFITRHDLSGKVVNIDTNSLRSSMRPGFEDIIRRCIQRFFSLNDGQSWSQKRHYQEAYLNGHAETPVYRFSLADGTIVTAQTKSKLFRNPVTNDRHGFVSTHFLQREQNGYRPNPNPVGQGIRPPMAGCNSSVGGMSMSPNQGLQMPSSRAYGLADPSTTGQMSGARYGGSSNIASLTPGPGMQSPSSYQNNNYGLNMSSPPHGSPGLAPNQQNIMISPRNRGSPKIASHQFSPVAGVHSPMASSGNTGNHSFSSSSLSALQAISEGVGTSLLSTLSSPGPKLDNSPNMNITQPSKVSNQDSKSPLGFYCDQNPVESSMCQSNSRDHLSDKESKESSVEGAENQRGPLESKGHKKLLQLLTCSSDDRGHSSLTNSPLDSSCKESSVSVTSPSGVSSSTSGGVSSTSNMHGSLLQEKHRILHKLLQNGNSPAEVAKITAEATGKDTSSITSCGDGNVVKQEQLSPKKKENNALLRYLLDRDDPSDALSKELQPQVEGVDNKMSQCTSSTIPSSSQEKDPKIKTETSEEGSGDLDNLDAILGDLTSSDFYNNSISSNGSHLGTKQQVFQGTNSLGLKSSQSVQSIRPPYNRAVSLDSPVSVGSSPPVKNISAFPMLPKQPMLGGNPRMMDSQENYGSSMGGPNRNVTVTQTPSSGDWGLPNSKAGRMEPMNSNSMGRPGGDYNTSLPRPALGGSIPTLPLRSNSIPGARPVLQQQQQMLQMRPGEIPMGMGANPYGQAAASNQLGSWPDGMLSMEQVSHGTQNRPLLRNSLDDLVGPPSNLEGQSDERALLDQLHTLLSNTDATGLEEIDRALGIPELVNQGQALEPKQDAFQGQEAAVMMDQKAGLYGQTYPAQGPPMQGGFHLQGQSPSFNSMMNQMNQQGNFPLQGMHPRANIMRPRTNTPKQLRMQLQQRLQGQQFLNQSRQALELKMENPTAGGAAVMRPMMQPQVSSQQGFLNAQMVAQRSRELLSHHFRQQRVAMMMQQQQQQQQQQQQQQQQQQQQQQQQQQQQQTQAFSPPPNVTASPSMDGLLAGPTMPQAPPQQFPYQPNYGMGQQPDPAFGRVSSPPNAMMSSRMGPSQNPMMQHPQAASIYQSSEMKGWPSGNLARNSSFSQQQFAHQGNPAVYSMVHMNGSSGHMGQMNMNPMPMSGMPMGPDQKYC

[25] = biological target: Peroxisome proliferator-activated receptor gamma/Nuclear receptor coactivator 1 (Homo sapiens, UniProt P37231); type: functional;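 also: agonist potency as compounds enhance coactivator SRC-1 recruitment to PPARgamma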
Sequence of Peroxisome proliferator-activated receptor gamma/Nuclear receptor coactivator 1 (P37231 whole entry): as the sequence (P37231 whole entry) above
Sequence of Peroxisome proliferator-activated receptor gamma/Nuclear receptor coactivator 1 (Q15788 whole entry, further chain): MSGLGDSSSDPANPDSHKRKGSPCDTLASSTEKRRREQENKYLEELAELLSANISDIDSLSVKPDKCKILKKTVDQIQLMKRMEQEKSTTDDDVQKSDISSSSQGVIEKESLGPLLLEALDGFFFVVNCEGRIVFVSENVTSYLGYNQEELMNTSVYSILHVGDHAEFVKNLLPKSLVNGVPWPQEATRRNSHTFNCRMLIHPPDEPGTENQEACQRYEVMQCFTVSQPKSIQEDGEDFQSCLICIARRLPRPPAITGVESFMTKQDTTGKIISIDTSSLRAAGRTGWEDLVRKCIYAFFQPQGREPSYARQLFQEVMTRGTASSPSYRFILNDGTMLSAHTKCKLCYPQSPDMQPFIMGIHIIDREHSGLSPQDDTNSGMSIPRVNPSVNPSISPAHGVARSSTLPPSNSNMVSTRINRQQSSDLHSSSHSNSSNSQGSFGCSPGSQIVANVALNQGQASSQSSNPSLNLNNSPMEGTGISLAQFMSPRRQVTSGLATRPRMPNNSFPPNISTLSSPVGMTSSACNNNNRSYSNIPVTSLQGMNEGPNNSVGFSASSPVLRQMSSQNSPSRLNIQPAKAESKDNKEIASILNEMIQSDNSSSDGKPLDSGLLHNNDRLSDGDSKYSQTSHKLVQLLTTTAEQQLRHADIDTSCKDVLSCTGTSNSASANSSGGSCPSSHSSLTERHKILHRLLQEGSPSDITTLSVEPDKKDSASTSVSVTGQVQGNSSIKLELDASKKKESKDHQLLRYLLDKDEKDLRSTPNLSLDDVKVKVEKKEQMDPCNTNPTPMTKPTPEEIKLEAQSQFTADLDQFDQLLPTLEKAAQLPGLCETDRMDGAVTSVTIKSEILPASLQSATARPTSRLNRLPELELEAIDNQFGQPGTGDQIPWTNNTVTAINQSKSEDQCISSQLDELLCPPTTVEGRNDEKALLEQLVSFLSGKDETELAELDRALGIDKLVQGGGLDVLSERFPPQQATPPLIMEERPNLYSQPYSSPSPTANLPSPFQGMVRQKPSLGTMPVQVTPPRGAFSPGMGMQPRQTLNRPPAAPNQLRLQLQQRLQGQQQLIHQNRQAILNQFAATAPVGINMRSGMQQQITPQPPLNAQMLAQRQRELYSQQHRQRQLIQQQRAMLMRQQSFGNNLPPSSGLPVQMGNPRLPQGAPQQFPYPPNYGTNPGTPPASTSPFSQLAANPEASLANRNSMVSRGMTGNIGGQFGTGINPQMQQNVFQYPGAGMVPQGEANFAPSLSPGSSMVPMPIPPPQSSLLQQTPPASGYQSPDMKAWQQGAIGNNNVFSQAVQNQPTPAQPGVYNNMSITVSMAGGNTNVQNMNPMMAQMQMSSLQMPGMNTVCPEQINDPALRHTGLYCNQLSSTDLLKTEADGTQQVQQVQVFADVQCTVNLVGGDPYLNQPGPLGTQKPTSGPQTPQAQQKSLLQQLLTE

[26] = Luminescence Cell-Based Dose Confirmation HTS to Identify Inhibitors of Polyadenylation.; type: functional
[27] = biological target: T4, Oxysterols receptor LXR-beta; type: functional, cell-based
[28] = biological target: Luciferin 4-monooxygenase (Photinus pyralis, UniProt P08659); test: firefly luciferase enzyme inhibitors, dose response, biochemical, luminescence (AID 1891)
[29] = Luminescence Cell-Based Dose Confirmation HTS to Identify Inhibitors of Platelet Dense Granule Release. [Related pubchem assays: 1663 (Primary HTS), 1678 (Summary of Project)]; type: functional
[30] = microbe, parasite or virus in culture; type: functional; settings: Mycobacterium tuberculosis

Structure (SMILES): CC(/C=C1\SC(=O)N(CC(=O)Nc2cccc(O)c2)C1=O)=C\c1ccccc1
- IC50 [1]: 10.2 µM (inactive)
- AC50 [2]: 4.04 µM (active)
- CC50 [3]: 13.9 µM (active)
- IC50 [4]: > 69.5 µM (inactive)

Structure (SMILES): O=C(CN(Cc1cccs1)S(=O)(=O)c1ccc(S(=O)(=O)NC2CCCCC2)cc1)Nc1ccccc1
- IC50 [1]: 7.69 µM (active)
- EC50 [5]: > 60 µM (not active)
- IC50 [4]: > 69.5 µM (inactive)
- EC50 [6]: 2.08 µM (active)

Structure (SMILES): COc1ccc(-n2ncc3c(N(C)C4CCCCC4)ncnc32)cc1
- IC50 (HEK293 [7]): > 20 µM (inactive)
- IC50 (HEK293 [8]): 10.7 µM (inactive)
- EC50 [9]: < 0.31 µM (inactive)
- IC50 (HEK293 [10]): > 20 µM (inactive)
- IC50 (HEK293 [11]): 8.11 µM (active)
- AC50 [12]: 0.246 µM (active)
- AC50 [13]: 0.578 µM (active)
- EC50 (HEK293 [14]): 7.56 µM (active)
- AC50 [15]: > 52 µM (inactive)

Structure (SMILES): CCN1CCN(Cc2ccc(NC(=O)Nc3cccs3)cc2)CC1
- AC50 (Cytochrome P450 1A2): 12.6 µM (inconclusive)
- IC50 (Estrogen receptor beta): 0.41 µM (not active)
- AC50 (Cytochrome P450 2C9): 7.94 µM (inconclusive)

Structure (SMILES): COc1ccc(C2C(C(=O)N3CCN(C)CC3)c3cc(OC)c(OC)cc3C(=O)N2C)cc1 (configuration not stated)
- EC50 [16]: 2.94 µM (not active)

Structure (SMILES): CCOC(=O)c1sc(NC(=O)COc2ccc3c(c2)OCO3)nc1C
- IC50 [17]: > 111 µM (not active)
- IC50 [18]: 7.18 µM (active)

Structure (SMILES): CN(C)c1cc(C(F)(F)F)nc(-c2ccccn2)n1
- EC50 [16]: 4.16 µM (not active)

Structure (SMILES): CCOc1ccc(OCC)c(NC(=O)C(NS(=O)(=O)c2ccc3c(c2)oc(=O)n3C)C(C)C)c1 (configuration not stated)
- IC50 [17]: > 111 µM (not active)
- IC50 [18]: > 5.47 µM (active)

Structure (SMILES): Oc1ccccc1-c1cc(-c2ccccc2Cl)[nH]n1
- EC50 [19]: > 67.5 µM (inactive)
- IC50 [20]: > 67.5 µM (inactive)

Structure (SMILES): O=C(c1ccc(F)cc1)N1CCC(N2CCCCCC2)CC1
- EC50 [21]: > 20 µM (not active)
- EC50 [22]: > 20 µM (not active)

Structure (SMILES): COc1ccc(NCCNc2ccc(OC)cc2)cc1
- EC50 [23]: > 79.4 µM (not active)
- EC50 [24]: > 79.4 µM (not active)
- EC50 [25]: > 79.4 µM (not active)

Structure (SMILES): Clc1ccccc1Cn1nnc(-c2ccccc2)n1
- EC50 [19]: > 67.5 µM (inactive)
- IC50 [20]: > 67.5 µM (inactive)

Structure (SMILES): O=C(CSc1nc2cccnc2n1Cc1ccccc1)NCc1ccco1
- EC50 [23]: > 79.4 µM (not active)
- EC50 [24]: > 79.4 µM (not active)
- EC50 [25]: > 79.4 µM (not active)

Structure (SMILES): CC(=O)c1c(COC(=O)c2ccc(Cl)cc2)nc2ccccc2[n+]1[O-]
- EC50 [26]: > 120 µM (not active)

Structure (SMILES): Cc1cccc(N(C(=O)c2snc(C(N)=O)c2N)C(C(=O)NCC2CCCO2)c2ccc(N(C)C)cc2)c1C (configuration not stated)
- IC50 [17]: > 111 µM (not active)
- IC50 [18]: 2.73 µM (active)

Structure (SMILES): COc1ccc(C(=O)/C=C/Nc2cc(C)ccn2)cc1
- EC50 [27]: > 67.6 µM (inactive)
- EC50 [28]: 1.69 µM (active)
- EC50 [29]: 7.6 µM (active)
- EC50 (cells): > 67.6 µM (inactive)

Structure (SMILES): CCOC(=O)c1s/c(=N\C(=O)c2ccc(Cl)s2)n(C)c1C
- EC50 [27]: > 67.5 µM (inactive)
- EC50 (cells): > 67.5 µM (inactive)

Structure (SMILES): Fc1ccccc1-c1ccc(/C=N/Nc2nc3ccccc3[nH]2)o1
- EC50 [19]: > 67.5 µM (inactive)
- IC50 [20]: > 67.5 µM (inactive)

Structure (SMILES): O=C(NC(C(=O)N/N=C/c1cccc2ccccc12)c1nnc(O)c2ccccc12)c1ccccc1 (configuration not stated)
- IC50 [1]: > 69.5 µM (inactive)
- CC50 [30]: > 40 µM (active)
- IC50 [4]: > 69.5 µM (inactive)

From ChEMBL document CHEMBL1201862, “PubChem BioAssay data set” (2004)
